The structures appear in SMILES notation. Values after ≈ are worked out from the molar mass of the structure shown.

One assay relates to E. Coli (Resistant). Kind of assay: microbe, parasite or virus in culture. The class given is cell-based, Escherichia coli. The settings on record: for MIC: Escherichia coli, 18 h, read-out: Minimum Inhibitory Concentration. The procedure:
(§1) Compounds V - VIII were tested and compared with trimethoprim, as control, against two external strains, (Escherichia coli) a sensitive No. 114 and a No. 114 carrying a resistant (R) factor which mediates the synthesis of an altered dihydrofolate reductase; S. G. R. Amyes and J. T. Smith, Biochem. and Biophys., Res. Comm., 58, 412 (1974).
(§2) The method used was a two-fold tube dilution test in 5 ml. amounts of minimal medium. The inoculum was 0.1 ml. of a 1:1T dilution of a 24 hour broth culture. The test was incubated at 37° C. for 18 hours.

The subject of another assay is E. Coli 114 Sensitive. Put plainly: Two-fold tube dilution test vs. trimethoprim-sensitive E. coli (Table 4). The class given is cell-based. The settings on record: Escherichia coli, minimal medium, 37° C., 18 hours, read-out: Minimum Inhibitory Concentration. The procedure: as §1, §2
In the next assay the test system is Escherichia coli 3100. Kind of assay: Two-fold tube dilution test, minimal medium (Table 2). Particulars: 37° C., 18 hours, read-out: Minimum Inhibitory Concentration. The format is cell-based. The procedure: (§3) The four compounds, i.e., compounds V, VI, VII, VIII, were tested against a series of strains including:
(§4) Escherichia coli Juhl and Escherichia coli 3100. The method used was a two-fold tube dilution test in 5 ml. amounts of minimal medium. The inoculum was 0.1 ml. of a 1:1T dilution of a 24 hour broth culture. The test was incubated at 37° C. for 18 hours.

The next assay concerns Escherichia coli Juhl. The description is as above. The class given is cell-based. Particulars: 37° C., 18 hours, read-out: Minimum Inhibitory Concentration. The procedure:
as §3, §4

Assay [1] deals with Klebsiella pneumoniae 8045. The assay is described as above. The class given is cell-based. The settings on record: 37° C., 18 hours, read-out: Minimum Inhibitory Concentration. The procedure:
as §3, §4

The test system of assay [2] is Salmonella typhimurium Ed 9. Described as above. The settings on record: Salmonella enterica, 37° C., 18 hours, read-out: Minimum Inhibitory Concentration. The format is cell-based. The procedure:
as §3, §4

The subject of assay [3] is Enterobacter aerogenes 13048. The description is as above. The class given is cell-based. Particulars: Klebsiella aerogenes, 37° C., 18 hours, read-out: Minimum Inhibitory Concentration. The procedure: as §3, §4
Assay [4] relates to Proteus mirabilis Finland #9. The description is as above. Particulars: 37° C., 18 hours, read-out: Minimum Inhibitory Concentration. The class given is cell-based. The procedure: as §3, §4
The test system of assay [5] is Streptococcus pyogenes C203. Kind of assay: Tube dilution test, Mueller Hinton Medium (Table 3). Particulars: 18 h, read-out: Minimum Inhibitory Concentration. The format is cell-based. The procedure:
(§5) Escherichia coli Juhl and Escherichia coli 3100. The method used was a two-fold tube dilution test in 5 ml. amounts of minimal medium. The inoculum was 0.1 ml. of a 1:1T dilution of a 24 hour broth culture. The test was incubated at 37° C. for 18 hours. A similar test was made on other strains with the compounds (V, VI, VII and VIII) in 5 ml. amounts of Mueller Hinton Medium.

Assay [6] has as its system Staphylococcus aureus 209P. Described as above. The format is cell-based. The settings on record: 18 h, read-out: Minimum Inhibitory Concentration. The procedure: as §5
For assay [7], the system named is Staphylococcus aureus Smith. The description is as above. The class given is cell-based. Particulars: 18 h, read-out: Minimum Inhibitory Concentration. The procedure: as §5
A further assay has as its system E. Coli (48). Kind of assay: Acute Mouse Protection Test (Table 6). The class given is in vivo, Female, Swiss albino mice. The settings on record: approximate, combination with sulfamethoxazole, medicated 1 and 5 hours post-infection, 7 days. The procedure: (§6) The test bacteria were transferred to Brain Heart Infusion Broth and incubated at 37° C. for 18 hours. Log dilutions of the organism were made in BHI broth and mixed with 3% hog gastric mucin.
(§7) Female, Swiss albino mice, 18 - 20 grams, were injected intraperitoneally with 0.75 ml. of inoculum.
(§8) The optimum dilution was one in which each mouse received 10 - 10 LD50 's of the infecting organism.
(§9) The test compound was diluted in such a way that there were 5 drug levels (each level is half as concentrated as the one above) in each test. Ten infected mice were treated with each level of drug. The mice were medicated 1 and 5 hours post-infection.

A further assay concerns E. Coli (Juhl). Put plainly: Acute Mouse Protection Test (Table 6). The class given is in vivo, Female, Swiss albino mice. The settings on record: approximate, combination with sulfamethoxazole, medicated 1 and 5 hours post-infection, 7 days. The procedure:
as §6, §7, §8, §9

A further assay relates to P. Mirabilis. Kind of assay: Acute Mouse Protection Test (Table 6). The class given is in vivo, Female, Swiss albino mice. The settings on record: approximate, combination with sulfamethoxazole, medicated 1 and 5 hours post-infection, 7 days. The procedure: as §6, §7, §8, §9
Another assay has as its system P. Vulgaris. Kind of assay: Acute Mouse Protection Test (Table 6). The format is in vivo, Female, Swiss albino mice. The settings on record: approximate, combination with sulfamethoxazole, medicated 1 and 5 hours post-infection, 7 days. The procedure: as §6, §7, §8, §9
The next assay has as its system E. Coli 3100. Put plainly: In vitro potentiation of sulfonamides, two-fold tube dilution test in BBL Nutrient broth (Table 5). Particulars: MIC of sulfonamide alone vs in combination. The class given is cell-based, Escherichia Coli. The procedure: The potentiation properties of the compounds, i.e., compounds V - VIII in various combinations with sulfa compounds, i.e., sulfonamides (sulfamethoxazole, sulfadiazine, sulfamethazine and sulfamerazine) were tested. The method was a two-fold tube dilution test using BBL Nutrient broth in 5 ml. amounts. The inoculum was 0.1 ml. of a 10^-3 dilution 24 hour broth culture of Escherichia Coli 3100. The test was incubated at 37° C. for 18 hours. | *The potentiation effect shown is determined by measuring the minimum | inhibitory concentration (MIC) of the sulfonamide alone and in combinatio | with the compound at the indicated ratios.

Where [8] appears, read: Sulfadiazine, Compound/Sulfa Ratio 1:1.
Setting [9] is: Sulfadiazine, Compound/Sulfa Ratio 1:5.

`COc1cc(Cc2cnc(N)nc2N)cc(OC)c1OC` [Trimethoprim, reference compound]: the MIC in the assay on E. Coli (Resistant) came to 3000 µg/mL (≈ 10300 µM); in the assay on E. Coli 114 Sensitive, 0.2 µg/mL (≈ 0.689 µM). Also, the “increase in resistance caused by the resistant (R) factor” value with E. Coli (Resistant) (R factor in E. Coli 114 versus sensitive) is reported as “several thousand-fold”.

Take `CNc1c(Cl)cc(Cc2cnc(N)nc2N)cc1Cl` [VI, 2,4-Diamino-5-(3,5-dichloro-4-methylaminobenzyl)pyrimidine]: the MIC in the assay on E. Coli (Resistant) is > 400 µg/mL; in the assay with Escherichia coli 3100 it was 3.1 µg/mL (≈ 10.4 µM); in the assay with Escherichia coli Juhl, 6.2 µg/mL (≈ 20.8 µM); in assay [1], 6.2 µg/mL (≈ 20.8 µM); in assay [2] it was 3.1 µg/mL (≈ 10.4 µM); in assay [3] it was 3.1 µg/mL (≈ 10.4 µM). Besides, the MIC was found to be 12.5 µg/mL (≈ 41.9 µM) in [4]; 6.2 µg/mL (≈ 20.8 µM) in assay [5]; 3.1 µg/mL (≈ 10.4 µM) in [6]; 6.2 µg/mL (≈ 20.8 µM) in [7]; 1.56 µg/mL (≈ 5.23 µM) in the assay on E. Coli 114 Sensitive. The “CD50, Cmpd. part of the Sulfa/Cmpd. combination” value worked out at 3 Mg./Kg in the assay with E. Coli (48), 30 Mg./Kg with E. Coli (Juhl), 60 Mg./Kg in the assay with P. Mirabilis and 2 Mg./Kg in the assay with P. Vulgaris. For the same compound, the values for the Potentiation with E. Coli 3100 (setting [8]) and in the assay on E. Coli 3100 (setting [9]) were 15.9 X and 3.1 X, respectively.

For `CCNc1c(Cl)cc(Cc2cnc(N)nc2N)cc1Cl` [VII, 2,4-Diamino-5-(3,5-dichloro-4-ethylaminobenzyl)pyrimidine], the MIC with E. Coli (Resistant) stood at 200 µg/mL (≈ 641 µM); in the assay on Escherichia coli 3100, 6.2 µg/mL (≈ 19.9 µM); in the assay with Escherichia coli Juhl, 3.1 µg/mL (≈ 9.93 µM); in assay [1], 12.5 µg/mL (≈ 40 µM); in assay [2] it was 12.5 µg/mL (≈ 40 µM); in assay [3] it was 25 µg/mL (≈ 80.1 µM). Further, the MIC in assay [4] amounted to 50 µg/mL (≈ 160 µM); in assay [5], 12.5 µg/mL (≈ 40 µM); in assay [6], 3.1 µg/mL (≈ 9.93 µM); in [7], 6.2 µg/mL (≈ 19.9 µM); with E. Coli 114 Sensitive, 3.1 µg/mL (≈ 9.93 µM). In addition, the “CD50, Cmpd. part of the Sulfa/Cmpd. combination” value turned out to be 2 Mg./Kg in the assay on E. Coli (48), 35 Mg./Kg in the assay with E. Coli (Juhl), 30 Mg./Kg with P. Mirabilis and 2 Mg./Kg in the assay on P. Vulgaris. The Potentiation in the assay on E. Coli 3100 (setting [8]) amounted to 8.0 X; with E. Coli 3100 (setting [9]), 6.2 X; in the assay with E. Coli 3100 (Sulfamerazine, Compound/Sulfa Ratio 1:1), 8.0 X; in the assay on E. Coli 3100 (Sulfamerazine, Compound/Sulfa Ratio 1:5), 3.2 X; in the assay with E. Coli 3100 (Sulfamethazine, Compound/Sulfa Ratio 1:1) it was 4.0 X; in the assay with E. Coli 3100 (Sulfamethazine, Compound/Sulfa Ratio 1:5), 3.2 X. In addition, the Potentiation in the assay with E. Coli 3100 (Sulfamethoxazole, Compound/Sulfa Ratio 1:1) is reported as 4.0 X; in the assay on E. Coli 3100 (Sulfamethoxazole, Compound/Sulfa Ratio 1:5), 3.1 X.

On to `Nc1ncc(Cc2cc(Cl)c(N)c(Cl)c2)c(N)n1` [V, 2,4-Diamino-5-(4-amino-3,5-dichlorobenzyl)pyrimidine], for which the MIC in the assay on E. Coli (Resistant) turned out to be 400 µg/mL (≈ 1410 µM); in the assay with Escherichia coli 3100, 0.39 µg/mL (≈ 1.37 µM); in the assay on Escherichia coli Juhl, 0.78 µg/mL (≈ 2.75 µM); in [1] it was 1.56 µg/mL (≈ 5.49 µM); in [2], 3.1 µg/mL (≈ 10.9 µM); in assay [3], 1.56 µg/mL (≈ 5.49 µM). For the same compound, the MIC in assay [4] was 25 µg/mL (≈ 88 µM); in [5], 6.2 µg/mL (≈ 21.8 µM); in assay [6], 6.2 µg/mL (≈ 21.8 µM); in assay [7], 25 µg/mL (≈ 88 µM); with E. Coli 114 Sensitive it was 1.56 µg/mL (≈ 5.49 µM). For the same compound, the figures for the “CD50, Cmpd. part of the Sulfa/Cmpd. combination” value in the assay with E. Coli (Juhl) and in the assay with P. Mirabilis were 45 Mg./Kg and 30 Mg./Kg, respectively. Moreover, the Potentiation in the assay on E. Coli 3100 (setting [8]) came to 31.0 X; in the assay on E. Coli 3100 (setting [9]), 3.1 X.

Turning to `CN(C)c1c(Cl)cc(Cc2cnc(N)nc2N)cc1Cl` [VIII, 2,4-Diamino-5-(3,5-dichloro-4-dimethylaminobenzyl)pyrimidine], the MIC in the assay on E. Coli (Resistant) is 100 µg/mL (≈ 320 µM); in the assay on Escherichia coli 3100, 6.2 µg/mL (≈ 19.9 µM); with Escherichia coli Juhl it was 6.2 µg/mL (≈ 19.9 µM); in [1], 6.2 µg/mL (≈ 19.9 µM); in [2] it was 6.2 µg/mL (≈ 19.9 µM); in assay [3] it was 3.1 µg/mL (≈ 9.93 µM). Besides, the MIC came to 25 µg/mL (≈ 80.1 µM) in assay [4]; 3.1 µg/mL (≈ 9.93 µM) in assay [5]; 1.56 µg/mL (≈ 5 µM) in assay [6]; 3.1 µg/mL (≈ 9.93 µM) in [7]; 6.2 µg/mL (≈ 19.9 µM) in the assay with E. Coli 114 Sensitive. For the same compound, the “CD50, Cmpd. part of the Sulfa/Cmpd. combination” value with E. Coli (48) came out at 3 Mg./Kg; with E. Coli (Juhl), 45 Mg./Kg; in the assay with P. Mirabilis, 80 Mg./Kg; in the assay with P. Vulgaris, 2 Mg./Kg. The values for the Potentiation in the assay with E. Coli 3100 (setting [8]) and in the assay on E. Coli 3100 (setting [9]) were 8.0 X and 1.6 X, respectively.

Source of the values: US4087528A, “2,4-Diamino-5-benzylpyrimidines” (Abbott Laboratories, priority 1976, dated 1978).
